# According to patent publication US9976170B2, “Method for evaluating bacterial cell wall integrity” (UNIVERSIDAD AUTONOMA DE MADRID, priority 2011, dated 2018):
# Where two headings read alike, the source gives them in different places.
# Columns and labels:
# Type in all cases: cell-based
# [1] = tested on: Acinetobacter baumannii, imipenem- and ceftazidime-resistant strain; assay: technique for evaluating cell wall integrity (lysis solution, nucleoid release, fluorescence microscopy); details: 60 minutes
# Experimental: (§1) Different bacterial strains grown on a dish with Mueller-Hinton medium for 24 hours were subsequently exposed to a β-lactam antibiotic for 60 minutes in Mueller-Hinton liquid medium at 37° C., under stirring, and were finally processed by means of the technique for evaluating cell wall integrity according to the present invention.
# (§2) The doses of antibiotic applied were 0, the MIC determined in the Microbiology Laboratory by means of the microdilution and/or E-test technique, and those of the cutoff points of sensitivity and resistance indicated by the Clinical and Laboratory Standards Institute (CLSI) for each strain. A dose 10 times higher than the MIC was also used.
# [2] = tested on: Acinetobacter baumannii, imipenem-sensitive strain with intermediate sensitivity to ceftazidime; assay: as above; details: 60 minutes
# Experimental: as §1, §2
# [3] = tested on: Acinetobacter baumannii, imipenem- and ceftazidime-resistant strain; assay: MIC by microdilution and/or E-test
# From the text: (§3) The strains and the antibiotics used were: • Gram+ • Enterococcus faecalis.
# as §2
# [4] = tested on: Acinetobacter baumannii, imipenem-sensitive strain with intermediate sensitivity to ceftazidime; assay: MIC by microdilution and/or E-test
# From the text: as §3, §2
# [5] = tested on: 11 different strains of E. coli isolated in a Microbiology Service; assay: technique for evaluating cell wall integrity on hospital isolates; details: of 11 strains, 1 hour
# Experimental: Following the results of the preceding experiment (Example 1), 11 different strains of E. coli isolated in a Microbiology Service were studied. After growing on a dish with Mueller-Hinton medium for 24 hours, they were exposed to amoxicilin together with clavulanic acid in Mueller-Hinton liquid medium for 1 hour, after which they were processed by means of the technique for evaluating cell wall integrity according to the present invention.
# [6] = tested on: sensitive strain of E. coli; assay: background of extracellular DNA fragments, processed without the step of lysis (FIG. 8); details: 40 minutes, after 24 hours on a dish
# Experimental: The strains were processed without the step of lysis by exposure to the lysis solution.
# The liquid with the cells is included in an agarose microgel which is dehydrated in alcohols and/or air dried or dried in an oven and stained with fluorochrome. It is the same process described in detail above, but without incubation with lysis solution. The background can be evaluated rapidly after 15-20 minutes that it takes to perform the technique. The preparations are permanent.
# [7] = tested on: amoxicilin/clavulanic acid-sensitive E. coli strain
# Experimental: The liquid with the cells is included in an agarose microgel which is dehydrated in alcohols and/or air dried or dried in an oven and stained with fluorochrome. It is the same process described in detail above, but without incubation with lysis solution.
# [8] = tested on: resistant strain of Escherichia coli; assay: technique for evaluating cell wall integrity, Examples 1 and 3
# From the text: (§4) Three different strains of Escherichia coli were exposed to the β-lactam antibiotic, amoxicilin, together with the β-lactamase inhibitor, clavulanic acid, and processed by means of the technique for evaluating cell wall integrity of the present invention. […] The doses of antibiotic were chosen according to the cutoff points indicated by the Clinical and Laboratory Standards Institute (CLSI). […] According to the disc diffusion data, one of the strains is a sensitive strain, another strain is a strain with intermediate sensitivity and the remaining strain is a resistant strain.
# (§5) A sensitive strain, a strain with intermediate sensitivity and another resistant strain of E. coli were exposed to amoxicilin together with clavulanic acid in Mueller-Hinton liquid medium and processed by means of the technique for evaluating cell wall integrity of the present invention. […] The incubation times with the antibiotic were 5, 10, 20, 30, 40, 60 and 75 minutes.
# [9] = tested on: strain of Escherichia coli with intermediate sensitivity; assay: as above; details: for incubation time at which a clear effect started to show: only after high dose (32/16)
# From the text: as §4, §5
# [10] = tested on: sensitive strain of Escherichia coli; assay: as above; details: for lysis of the bacteria, showing the nucleoids: exponential liquid culture
# From the text: as §4, §5
# [11] = 32/16, 15 minutes of incubation
# [12] = dose 32/16, 40 minutes, exponential liquid culture
# [13] = low dose (8/4), bacteria from 24-hour dish culture
molecule,measurement,setting,value
C[C@@H](O)[C@H]1C(=O)N2C(C(=O)O)=C(SCCN=CN)C[C@H]12 [imipenem],cells with a large halo,[1]; 16 μg/mL,1%
same,cells with a small halo,[1]; 16 μg/mL,1%
same,lysed cells with nucleoid with fragmented DNA,[1]; 16 μg/mL,0.5%
same,cells not lysed,[1]; 320 μg/mL,92%
same,heavily lysed cells,[1]; 320 μg/mL,3.5%
same,lysed cells with a small halo,[1]; 320 μg/mL,2.5%
same,lysed cells with nucleoid with fragmented DNA,[1]; 320 μg/mL,2%
same,cells with a large halo,[2]; 4 μg/mL,13.5%
same,faint empty capsules,[2]; 4 μg/mL,12%
same,lysed cells with nucleoid with fragmented DNA,[2]; 4 μg/mL,66%
same,non-lysed cells,[2]; 4 μg/mL,8.5%
same,cells with a large halo,[2]; 8 μg/mL,6%
same,faint empty capsules,[2]; 8 μg/mL,19.5%
same,lysed cells with nucleoid with fragmented DNA,[2]; 8 μg/mL,69.5%
same,non-lysed cells,[2]; 8 μg/mL,5%
same,cells with a large halo,[2]; 16 μg/mL,5%
same,faint empty capsules,[2]; 16 μg/mL,15%
same,lysed cells with nucleoid with fragmented DNA,[2]; 16 μg/mL,73.5%
same,non-lysed cells,[2]; 16 μg/mL,6.5%
same,MIC,[3],> 32 µg/mL
same,MIC,[4],0.38 µg/mL
amoxicilin/clavulanic acid,"strains with complete wall lysis and intense background even at low dose (8/4), categorized as sensitive",[5],Three
same,"strains with complete wall lysis and intense background only at high dose (32/16), intermediate sensitivity",[5],5
same,"strains with non-lysed and moderately lysed cells, very faint or no background at high dose, categorized as resistant",[5],Two
same,"background of extracellular DNA fragments, without lysis",[6]; high dose (32/16),increases significantly
same,"background of extracellular DNA fragments, without lysis",[6]; low dose (8/4),evident
same,"background of extracellular DNA fragments, without lysis",[7]; [11],very clear background
same,"cells per mL, measured by Neubauer chamber",[7]; [11],42.5 million of cells per mL
same,OD 600,"[7]; 32/16, 15 minutes of incubation, starting OD 600 0.07",0.071
same,OD 600,"[7]; 32/16, 2 hours of incubation",0.033
same,cells per mL,"[7]; 32/16, 2 hours of incubation",14.5 million of cells per mL
same,OD 600,"[7]; 32/16, 3 hours",0.037
same,OD 600,"[7]; 32/16, 4 hours",0.033
same,OD 600,"[7]; 32/16, 6 hours",0.035
same,cells per mL,"[7]; 32/16, 6 hours",13.5 million of cells per mL
same,"background of extracellular DNA fragments, without lysis","[7]; 32/16, after 3 and 4 hours",poor
same,"background of extracellular DNA fragments, without lysis","[7]; 32/16, after 6 hours",no longer observed
same,cells per mL,"[7]; 32/16, at both 3 and 4 hours",14 million of cells per mL
same,"background of extracellular DNA fragments, without lysis","[7]; 32/16, up to 2 hours of incubation",remains intense
same,effect on the wall,"[8]; 8/4 and 32/16, liquid culture in exponential growth phase",did not show any effect at all
same,effect on the wall,"[8]; 8/4 and 32/16, up to 75 minutes, bacteria from 24-hour dish culture",did not show any effect at all
same,"lysis of the bacteria, showing the nucleoids",[8]; [12],not lysed
same,"lysis of the bacteria, showing the nucleoids",[9]; [12],lysed
same,incubation time at which a clear effect started to show,[9]; bacteria from 24-hour dish culture,60 min
same,incubation time at which a clear effect started to show,[9]; liquid culture in exponential growth phase,30 to 40 min
same,"lysis of the bacteria, showing the nucleoids","[10]; dose 8/4 (8 μg/mL amoxicilin, 4 μg/mL clavulanic acid), 40 minutes",lysed
same,"lysis of the bacteria, showing the nucleoids","[10]; dose 32/16, 40 minutes",lysed
same,"incubation time after which an effect (background, subtle cell lysis) started to be seen","[10]; high dose (32/16), bacteria from 24-hour dish culture",20 min
same,incubation time after which an effect started to be observed,"[10]; low (8/4) and high (32/16) dose, liquid culture in exponential growth phase",10 min
same,incubation time after which the subtle effect was observed,[10]; [13],40 min
same,incubation time at which the effect became maximum (lysis of virtually all cells),[10]; [13],60 min
